In brackets after ≈: the same amount, converted by molar mass.
Tests used:
[1] = Inhibition of SARS Coronavirus helicase expressed in Escherichia coli assessed as reduction in ATP hydrolysis preincubated for 5 mins followed by ATP and circular ssDNA M13 addition and measured after 10 mins by malachite green and ammonium molybdate reagent based assay; parameters: species or system Severe acute respiratory syndrome-related coronavirus
[2] = Inhibition of SARS Coronavirus helicase expressed in Escherichia coli assessed as reduction in dsDNA unwinding activity by FRET assay; parameters: species or system Severe acute respiratory syndrome-related coronavirus
Human coronavirus 229E [3] = experiment: Antiviral activity against HCoV-229E infected in human MRC-5 cells incubated for 96 hrs by XTT assay; format: functional, organism-based; conditions: MRC5, 96 h
[4] = Cytotoxicity against human MRC5 cells incubated for 96 hrs by XTT assay; format: cell-based
[5] = Selectivity ratio of CC50 for human MRC5 cells to EC50 for HCoV-229E infected in human MRC5 cells; format: toxicity, cell-based; conditions: read-out: Ratio CC50/EC50
[6] = Cytotoxicity against African green monkey Vero E6 cells by the CCK8 assay; format: cell-based, Vero C1008; conditions: chlorocebus sabaeus
Human coronavirus OC43 [7] = experiment: Antiviral activity against wild type HCoV-OC43 infected in human Huh-7 cells preincubated for 1 hrs followed by overlaying with reduced-serum Medium and measured after 72 hrs ELISpot assay; format: functional, cell-based; conditions: Betacoronavirus 1, Huh-7
[8] = Cytotoxicity against human Huh-7 cells by CellTiter-Glo assay; format: cell-based
Human coronavirus 229E [9] = experiment: Antiviral activity against HCoV-229E infected in human Huh7 cells assessed as reduction in virus induced cytopathic effect incubated for 6 days by cellTiter-Glo assay; format: functional, organism-based; conditions: Huh-7, 144 h
Huh-7 = experiment: Cytotoxicity against human Huh7 cells incubated for 6 days by cellTiter-Glo assay; format: functional; conditions: Huh-7, 144 h, time 6 day
SARS-CoV [10] = experiment: Antiviral activity against SARS-CoV expressing green fluorescent protein infected in human airway epithelial cells incubated for 48 hrs by RT-PCR method; format: functional, organism-based; conditions: Severe acute respiratory syndrome-related coronavirus, HAE
[11] = Cytotoxicity against HAE cells by CellTiter-Glo assay; format: cell-based; conditions: human
[12] = Inhibition of SARS Coronavirus helicase pp1ab domain assessed as reduction in ATPase activity by phosphomolybdate-malachite green assay; parameters: species or system Severe acute respiratory syndrome-related coronavirus
[13] = Inhibition of SARS Coronavirus helicase pp1ab domain assessed as reduction in helicase activity using DT20Cy3/Release BHQ oligomers by FRET-based assay; parameters: species or system Severe acute respiratory syndrome-related coronavirus
SARS-CoV [14] = experiment: Antiviral activity against SARS-CoV by cell-based assay; format: functional; conditions: Severe acute respiratory syndrome-related coronavirus
Human coronavirus OC43 [15] = experiment: Antiviral activity against wild type HCoV-OC43 infected in BHK-21 cells incubated for 72 hrs by RT-PCR method; format: functional, cell-based; conditions: Betacoronavirus 1, BHK-21, 72 h
[16] = Antiviral activity against HCoV-NL63 infected in Rhesus macaque LLC-MK2 cells incubated for 72 hrs by RT-PCR method; format: functional, cell-based; conditions: Human coronavirus NL63, LLC-MK2, 72 h
in vitro [17] = conditions: hamster, BHK-21 cells
in vitro [18] = conditions: hamster, BHK-21 cells; remark: listed apart in the source
in vitro [19] = conditions: rhesus monkey, LLC-MK2 cells
in vitro [20] = conditions: rhesus monkey, LLC-MK2 cells; remark: listed apart in the source
[21] = Selectivity index, ratio of CC50 for African green monkey Vero E6 cells to EC50 for SARS-CoV infected in African green monkey Vero E6 cells; format: toxicity, Vero C1008; conditions: read-out: Ratio CC50/EC50
[22] = Cytotoxicity against African green monkey Vero E6 cells incubated for 2 days by the MTS assay; format: cell-based, Vero C1008; conditions: chlorocebus sabaeus, time 2 day
SARS-CoV [23] = experiment: Antiviral activity against SARS-CoV infected in African green monkey Vero E6 cells assessed as reduction in viral replication by ELISA; format: functional, organism-based; conditions: Severe acute respiratory syndrome-related coronavirus, Vero C1008
SARS-CoV [24] = experiment: Antiviral activity against SARS-CoV FFM1 infected in African green monkey Vero cells assessed as reduction in virus induced cytopathic effect treated twice for 7 days; format: functional, organism-based; conditions: Severe acute respiratory syndrome-related coronavirus, 168 h
SARS-CoV [25] = experiment: Antiviral activity against SARS-CoV FFM2 infected in African green monkey Vero cells assessed as reduction in virus induced cytopathic effect treated twice for 7 days; format: functional, organism-based; conditions: Severe acute respiratory syndrome-related coronavirus, 168 h
[26] = Selectivity ratio of CC50 for African green monkey Vero cells to EC50 for SARS-CoV FFM1 infected in African green monkey Vero cells; format: toxicity; conditions: read-out: Ratio CC50/EC50
[27] = Selectivity ratio of CC50 for African green monkey Vero cells to EC50 for SARS-CoV FFM2 infected in African green monkey Vero cells; format: toxicity; conditions: read-out: Ratio CC50/EC50
SARS-CoV-2 [28] = experiment: Antiviral activity against SARS-CoV-2 infected in African green monkey Vero cells incubated for 48 hrs by RT-PCR method; format: functional, organism-based; conditions: Severe acute respiratory syndrome coronavirus 2, Vero
SARS-CoV-2 [29] = experiment: Antiviral activity against 2019-nCoV BetaCoV/Wuhan/WIV04/2019 infected in African green monkey VeroE6 cells assessed as reduction in viral yield preincubated with virus for 1 hr followed by cell infection and […] by qRT-PCR method; format: functional, organism-based; conditions: Severe acute respiratory syndrome coronavirus 2, BetaCoV/Wuhan/WIV04/2019, Vero C1008
[30] = Selectivity index, ratio of CC50 for African green monkey Vero E6 cells to EC50 for 2019-nCoV Beta CoV/Wuhan/WIV04/2019 infected in African green monkey Vero E6 cells; format: toxicity, Vero C1008; conditions: read-out: Ratio CC50/EC50

Structure (SMILES): NS(=O)(=O)c1ccc(NC(=O)/C=C/c2ccco2)cc1
- IC50 [1]: 2.09 µM
- IC50 [2]: 13.2 µM

Structure (SMILES): C[C@H]1O[C@@H](O[C@H]2CC[C@@]3(C)[C@@H](CC[C@]4(C)[C@@H]3C=CC3=C5CC(C)(C)CC[C@]5(CO)[C@H](O)C[C@]34C)[C@]2(C)CO)[C@H](O)[C@@H](O[C@@H]2O[C@H](CO)[C@@H](O)[C@H](O)[C@H]2O)[C@H]1O
- EC50 (Human coronavirus 229E [3]): 1.7 µM
- CC50 at 96 h [4]: 383 µM
- selectivity ratio [5]: 222

Structure (SMILES): CCC(CC)COC(=O)[C@H](C)N[P@](=O)(OC[C@H]1O[C@@](C#N)(c2ccc3c(N)ncnn23)[C@H](O)[C@@H]1O)Oc1ccccc1
- CC50 [6]: 100 µM
- EC50 (Human coronavirus OC43 [7]): 0.15 µM
- CC50 [8]: > 10 µM
- EC50 (Human coronavirus 229E [9]): 0.024 µM
- CC50 (Huh-7): > 10 µM
- EC50 (SARS-CoV [10]): 0.06 µM
- CC50 [11]: > 10 µM

Structure (SMILES): CCn1c(S)nc2c1c(=O)[nH]c(=O)n2C
- IC50 [1]: 8.66 µM
- IC50 [2]: 41.6 µM

Structure (SMILES): COc1cc(CC(C)c2nc(C)c(O)c(C34OC5(O)CC(O)(CC(O)(C5)O3)O4)c2CO)ccc1O (stereo not drawn)
- IC50 [12]: 2.8 µM
- IC50 [13]: 5.4 µM

Structure (SMILES): COc1cc(C23OC4(O)CC(O)(CC(O)(C4)O2)O3)ccc1O
- IC50 [12]: 0.68 µM
- IC50 [13]: 2.7 µM

Structure (SMILES): Cc1nc(I)c(C(=O)O)c(C23OC4(O)CC(O)(CC(O)(C4)O2)O3)c1O
- IC50 [12]: 0.54 µM
- IC50 [13]: 7 µM

Structure (SMILES): C[C@@H]1O[C@@H](O[C@H]2[C@H](O[C@H]3CC[C@@]4(C)[C@@H](CC[C@]5(C)[C@@H]4CC=C4[C@@H]6CC(C)(C)CC[C@]6(C(=O)O)CC[C@]45C)[C@]3(C)CO)OC[C@H](O)[C@@H]2O)[C@H](O)[C@H](O)[C@H]1O [ALPHA-HEDERIN]
- MIC (SARS-CoV [14]): 10 µM (≈ 7.51 µg/mL)

Structure (SMILES): CC[C@H]1CN2CCc3cc(OC)c(OC)cc3[C@@H]2C[C@@H]1C[C@H]1NCCc2cc(OC)c(OC)cc21 [EMETINE]
- EC50 (Human coronavirus OC43 [15]): 0.3 µM
- EC50 [16]: 1.43 µM
- CC50 at 72 h (in vitro [17]): 2.69 µM
- selectivity ratio (in vitro [18]): 9
- CC50 at 72 h (in vitro [19]): 3.63 µM
- selectivity ratio (in vitro [20]): 2.5

Structure (SMILES): C/C=C(\C)C(=O)O[C@H]1[C@H](OC(C)=O)[C@]2(CO)[C@H](O)C[C@]3(C)C(=CC[C@@H]4[C@@]5(C)CC[C@H](O[C@@H]6O[C@H](C(=O)O)[C@@H](O[C@@H]7O[C@H](CO)[C@@H](O)[C@H](O)[C@H]7O)[C@H](O)[C@H]6O[C@@H]6O[C@H](CO)[C@@H](O)[C@H](O)[C@H]6O)[C@](C)(CO)[C@@H]5CC[C@]43C)[C@@H]2CC1(C)C [ESCIN IA]
- selectivity ratio [21]: 2.5
- CC50 at 48 h [22]: 25 µM
- IC50 (SARS-CoV [23]): 6 µM

Structure (SMILES): CC1(C)[C@@H](O[C@H]2O[C@H](C(=O)O)[C@@H](O)[C@H](O)[C@H]2O[C@@H]2O[C@H](C(=O)O)[C@@H](O)[C@H](O)[C@H]2O)CC[C@]2(C)[C@H]3C(=O)C=C4[C@@H]5C[C@@](C)(C(=O)O)CC[C@]5(C)CC[C@@]4(C)[C@]3(C)CC[C@@H]12 [GLYCYRRHIZIN]
- EC50 (SARS-CoV [24]): 365 µM
- EC50 (SARS-CoV [25]): 365 µM
- selectivity ratio [26]: 66
- selectivity ratio [27]: 66

Structure (SMILES): CCN(CCO)CCCC(C)Nc1ccnc2cc(Cl)ccc12 (stereo not drawn) [HYDROXYCHLOROQUINE]
- IC50 (SARS-CoV-2 [28]): 0.72 µM

Structure (SMILES): CC[C@@]1([C@H]2O[C@H]([C@H]3O[C@@](O)(CO)[C@H](C)C[C@@H]3C)C[C@H]2C)CC[C@H]([C@@]2(C)CC[C@]3(C[C@H](O)[C@@H](C)[C@@H]([C@H](C)[C@H](OC)[C@@H](C)C(=O)O)O3)O2)O1 [MONENSIN SODIUM]
- EC50 (Human coronavirus OC43 [15]): 3.81 µM
- EC50 [16]: 1.54 µM

Structure (SMILES): COc1c(C)c2c(c(O)c1C/C=C(\C)CCC(=O)OCCN1CCOCC1)C(=O)OC2 [MYCOPHENOLATE MOFETIL]
- EC50 (Human coronavirus OC43 [15]): 1.58 µM
- EC50 [16]: 0.23 µM
- CC50 at 72 h (in vitro [17]): 3.43 µM
- selectivity ratio (in vitro [18]): 2.2
- CC50 at 72 h (in vitro [19]): 3.01 µM
- selectivity ratio (in vitro [20]): 13

Structure (SMILES): COc1c(C)c2c(c(O)c1C/C=C(\C)CCC(=O)O)C(=O)OC2 [MYCOPHENOLIC ACID]
- EC50 (Human coronavirus OC43 [15]): 1.95 µM
- EC50 [16]: 0.18 µM
- CC50 at 72 h (in vitro [17]): 3.55 µM
- selectivity ratio (in vitro [18]): 1.8
- CC50 at 72 h (in vitro [19]): 3.44 µM
- selectivity ratio (in vitro [20]): 19

Structure (SMILES): N=C(N)c1ccc2cc(OC(=O)c3ccc(N=C(N)N)cc3)ccc2c1 [NAFAMOSTAT]
- EC50 (SARS-CoV-2 [29]): 22.5 µM
- CC50 [6]: > 100 µM
- selectivity ratio [30]: > 4.4

Structure (SMILES): CC(=O)Oc1ccccc1C(=O)Nc1ncc([N+](=O)[O-])s1 [NITAZOXANIDE]
- EC50 (SARS-CoV-2 [29]): 2.12 µM
- CC50 [6]: > 35.5 µM
- selectivity ratio [30]: > 16.7

Structure (SMILES): Nc1nc2c(ncn2CCC(CO)CO)c(=O)[nH]1 [PENCICLOVIR]
- IC50 (SARS-CoV-2 [29]): 95.9 µM
- CC50 [6]: > 400 µM
- selectivity ratio [30]: > 4.2

Structure (SMILES): Nc1ccc(/N=N/c2ccccc2)c(N)n1 [PHENAZOPYRIDINE]
- EC50 (Human coronavirus OC43 [15]): 1.9 µM
- EC50 [16]: 2.02 µM
- CC50 at 72 h (in vitro [17]): > 20 µM
- selectivity ratio (in vitro [18]): > 10
- CC50 at 72 h (in vitro [19]): > 20 µM
- selectivity ratio (in vitro [20]): > 9.9

Structure (SMILES): Cc1cc(/C=C/c2ccc3cc(N(C)C)ccc3[n+]2C)c(C)n1-c1ccccc1 [PYRVINIUM PAMOATE]
- EC50 (Human coronavirus OC43 [15]): 3.21 µM
- EC50 [16]: 3.35 µM

Structure (SMILES): COC(=O)[C@H]1[C@H]2C[C@@H]3c4[nH]c5cc(OC)ccc5c4CCN3C[C@H]2C[C@@H](OC(=O)c2cc(OC)c(OC)c(OC)c2)[C@@H]1OC [RESERPINE]
- selectivity ratio [21]: 7.3
- CC50 at 48 h [22]: 25 µM
- IC50 (SARS-CoV [23]): 3.4 µM

Structure (SMILES): NC(=O)c1ncn([C@@H]2O[C@H](CO)[C@@H](O)[C@H]2O)n1 [RIBAVIRIN]
- CC50 [6]: > 400 µM

Structure (SMILES): CC(C)[C@@H]1NC(=O)[C@H](C)OC(=O)[C@@H](C(C)C)NC(=O)[C@@H](C(C)C)OC(=O)[C@H](C(C)C)NC(=O)[C@H](C)OC(=O)[C@@H](C(C)C)NC(=O)[C@@H](C(C)C)OC(=O)[C@H](C(C)C)NC(=O)[C@H](C)OC(=O)[C@@H](C(C)C)NC(=O)[C@@H](C(C)C)OC1=O [VALINOMYCIN]
- selectivity ratio [21]: 80
- CC50 at 48 h [22]: 68 µM
- IC50 (SARS-CoV [23]): 0.85 µM

Reference: ChEMBL document CHEMBL4715853 (J Med Chem, 2020)
